# Literature values in PMC3401542 (Bioorganic & medicinal chemistry, 2012).
# Test system: N1 NAs
# Conditions: read-out: inhibition (IC50) of N1 NAs; range over N1 NAs; ref [28]; cited from earlier work
smiles,measurement,value
"CCC(CC)O[C@@H]1C=C(C(=O)O)C[C@H](N)[C@H]1NC(C)=O [Compound 1c, oseltamivir carboxylate]",IC50,0.3 to 0.8 nM
